The results in this text go back to US8557800B2, “Sphingosine kinase inhibitors” (Apogee Biotechnology Corporation, priority 2005, dated 2013).

Each structure is given as a SMILES string. “And” between values parts separate entries of the source, which are not always exact repeats. Equal entries are not always repeated. Where two headings read alike, the source gives them in different places. Bounds are passed on as bounds.

For data set [1], the system named is MDA-MB-231 (breast, ER−). As to the kind of experiment: Human tumor cell line panel, sulforhodamine B. The format is cell-based. The settings on record: 48 hours, mean ± sd.
The test system of data set [2] is A-498 (kidney). Nature of the data set: Human tumor cell line panel, sulforhodamine B. It is filed as cell-based. As to conditions: A498, 48 hours, mean ± sd.
The nature of data set [3]: Oral pharmacokinetics in mice (PEG400). As to conditions: mouse, blood, 100 mg/kg oral gavage in PEG400, female Swiss-Webster mice. It is filed as in vivo. As for the experimental part:
Oral pharmacokinetic studies were performed on Compounds 62 and 57. Each compound was dissolved in PEG400 and administered to female Swiss-Webster mice at a dose of 100 mg/kg by oral gavage. Mice were anesthetized and blood was removed via cardiac puncture at 5 minutes, 30 minutes, 1, 2, and 8 hours. Concentrations of the test compounds were determined using liquid-liquid extraction, appropriate internal standards and reverse phase HPLC with UV detection. Control blood samples were run to identify compound-specific peaks. Pharmacokinetic parameters were calculated using the WINNONLIN analysis software package (Pharsight). Non-compartmental and compartmental models were tested, with the results shown in Table 7 derived from the best fit equations.

For data set [4], the system named is Caco-2 (colon). Nature of the data set: Human tumor cell line panel, sulforhodamine B. The settings on record: 48 hours, mean ± sd. It is filed as cell-based.
In data set [5] the test system is DU145 (prostate). Nature of the data set: Human tumor cell line panel, sulforhodamine B. It is filed as cell-based. As to conditions: DU-145, 48 hours, mean ± sd.
The test system of data set [6] is Hep-G2 (liver). As to the kind of experiment: Human tumor cell line panel, sulforhodamine B. As to conditions: HepG2, 48 hours, mean ± sd. The format is cell-based.
Data set [7] deals with MCF-7 human breast adenocarcinoma cells. Nature of the data set: Cytotoxicity, SRB binding assay. The format is cell-based. The settings on record: MCF7, inhibition of cell proliferation, 48 h, read-out: MCF-7 IC50. The essentials: (§1)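 Cells exposed to varying compound doses for 48 h, then survival measured by sulforhodamine B staining. IC50 is the concentration giving 50% proliferation inhibition, in μM, as mean±sd of replicate trials.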
A general note: In SRB staining, fixed cells bind dye roughly in proportion to their protein.

The subject of data set [8] is MCF-10A non-transformed human breast epithelial cells. Nature of the data set: Cytotoxicity, SRB binding assay. The format is cell-based. As to conditions: inhibition of cell proliferation, 48 h, read-out: MCF-10A IC50. An outline of the steps:
as §1

Data set [9] relates to mouse JC mammary adenocarcimona cell line growing subcutaneously in Balb/c mice. Here is the method:
The antitumor activity of the representative SK inhibitors were evaluated using a syngeneic tumor model that uses the mouse JC mammary adenocarcimona cell line growing subcutaneously in immunocompetent Balb/c mice (Lee et al., 2003, Oncol Res 14: 49).
In FIG. 1, Balb/c mice, 6-8 weeks old, were injected subcutaneously with 10^6 JC cells suspended in phosphate-buffered saline. The SK inhibitors Compounds 62 and 57 were dissolved in PEG400 and administered to mice every-other day at a dose of 100 mg/kg. Body weights and tumor volumes were monitored daily. In FIG. 1, tumor growth is expressed as the tumor volume relative to day 1 for each animal.

Data set [10] concerns HT-29 (colon). Nature of the data set: Human tumor cell line panel, sulforhodamine B. It is filed as cell-based. The settings on record: 48 hours, mean ± sd.
A short description of data set [11]: physchem. The settings on record: aqueous with cosolvent or surfactant or cyclodextrin.
For data set [12], the system named is Panc-1 (pancreas). As to the kind of experiment: Human tumor cell line panel, sulforhodamine B. It is filed as cell-based. The settings on record: 48 hours, mean ± sd.
The subject of data set [13] is MCF-7 (breast, ER+). Nature of the data set: Human tumor cell line panel, sulforhodamine B. As to conditions: MCF7, 48 hours, mean ± sd. The format is cell-based.
Data set [14] deals with T24 (bladder). Nature of the data set: Human tumor cell line panel, sulforhodamine B. It is filed as cell-based. The settings on record: 48 hours, mean ± sd.
Data set [15] concerns SK-OV-3 (ovary). As to the kind of experiment: Human tumor cell line panel, sulforhodamine B. The format is cell-based. The settings on record: 48 hours, mean ± sd.
In data set [16] the test system is 1025LU (melanoma). Nature of the data set: Human tumor cell line panel, sulforhodamine B. It is filed as cell-based. As to conditions: 48 hours, mean ± sd.
In data set [17] the test system is recombinant human SK. As to the kind of experiment: Inhibition of recombinant human SK, LC/MS/MS assay. As to conditions: 6 μg/ml compound. It is filed as biochemical. An outline of the steps:
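Enzyme incubated with unlabeled sphingosine and ATP (1 mM, as in the radiometric format) for 30 min, then stopped and extracted with acetonitrile. S1P quantified by C8 reverse-phase HPLC–MS/MS against C17 sphingosine and C17 S1P internal standards using calibration curves.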

Data set [18] has as its system recombinant human SK. As to the kind of experiment: Recombinant human SK assay with [3H]sphingosine. The format is biochemical. The settings on record: positive control. Here is the method:
An assay for identifying inhibitors of recombinant human SK has been established (French et al., 2003, Cancer Res 63: 5962). cDNA for human SK was subcloned into a pGEX bacterial expression vector, which results in expression of the enzyme as a fusion protein with glutathione-S-transferase, and the fusion protein is then purified on a column of immobilized glutathione. SK activity is measured by incubation of the recombinant SK with [^3H]sphingosine and 1 mM ATP under defined conditions, followed by extraction of the assay mixture with chloroform:methanol under basic conditions. […] Radioactivity in aliquots of the aqueous phase is then quantified as a measure of [^3H]S1P formation. There is a low background level of partitioning of [^3H]sphingosine into the aqueous phase, and addition of the recombinant SK greatly increases the formation of [^3H]S1P.

As a reminder, the IC50 is the concentration at which inhibition is half-maximal. One may read the Cmax as the maximum level reached in the sampled fluid or tissue. In general, Tmax refers to the time from dosing to the highest level. The half-life is how long it takes for the measured level to halve. The solubility is how much of the substance goes into solution per volume. Consider `CN1CCCC1CCNC(=O)C12CC3CC(C1)CC(c1ccc(Cl)cc1)(C3)C2` (centres unmarked) [Compound 57, 3-(4-Chloro-phenyl)-adamantane-1-carboxylic acid [2-(1-methyl-pyrrolidin-2-yl)-ethyl]-amide], for which the IC50 in [1] was 12.5 ± 2.5 µM; in data set [2], 8 ± 3.5 µM; in data set [4] it was 3.2 ± 2 µM; in [5] it was 8.7 ± 3.3 µM; in [6], 5 ± 1.8 µM; in data set [7] it was 6 µM. Besides, the IC50 in data set [8] was found to be 8 µM; in [10], 9.6 ± 4 µM; in data set [12], 14.1 ± 6.3 µM; in [13], 12.1 ± 3.1 µM; in data set [14] it was 12.7 ± 2.8 µM; in data set [15] it was 9.2 ± 2.8 µM. Moreover, the midpoint of inhibition in data set [16], the IC50, lay at 7.2 ± 0.8 µM. Besides, the Cmax in data set [3] was found to be 3.8 µM. The Tmax in [3] was found to be 2 h. In [3], this compound showed a half-life of 19.3 h. For the same compound, the results for the AUC(0-inf) in data set [3] (read-out: AUC0→∞ (μM * h)) and in data set [3] (read-out: AUC0→∞ (μg * h/mL)) were 111 µM·h and 45000 ng·h/mL, respectively. Moreover, the “inhibition of tumor growth relative to controls” value in data set [9] (100 mg/kg oral every-other day in PEG400) was found to be 78%. For the same compound, the In vivo activity entry in data set [9] (JC tumor model, intraperitoneal (ip) or oral (po) administration) is on record as “active - po”. The solubility in data set [11] is ≥ 15000 µg/mL and 30000 µM to 40000 µM. Besides, in data set [17], the “Recombinant SK (% inhibition)” value amounted to 30%.
Take `CCCCCCCCCCCCC/C=C/[C@@H](O)[C@H](CO)N(C)C` [DMS, D-erythro-N,N-dimethylsphingosine]: in data set [18], the “concentration that completely inhibits SK activity” value is listed as “above 25 μM”.
